Measured values as given in ChEMBL document CHEMBL1201862, “PubChem BioAssay data set” (2004).
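All cell lines were grown in 96-well plates and treated with compound for 48 hours. At the GI50, growth is halved.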 The source made the active and inactive calls. Rule as the data show it: active = GI50 up to about 1.1 µM and inactive = higher.

Tests used:
Assay in all cases: NCI anticancer screen, dose series, 48 h
786-0 = system: 786-0
ACHN = system: ACHN
CCRF-CEM = system: CCRF-CEM
EKVX = system: EKVX
HCT-15 = system: HCT-15
HT-29 = system: HT-29
IGROV-1 = system: IGROV-1
KM12 = system: KM12
NCI-H23 = system: NCI-H23
NCI/ADR-RES = system: NCI/ADR-RES
PC-3 = system: PC-3
RXF 393 = system: RXF 393
SN12C = system: SN12C
SNB-19 = system: SNB-19
SNB-75 = system: SNB-75
UO-31 = system: UO-31
HCC 2998 = system: HCC 2998
OVCAR-4 = system: OVCAR-4
T47D = system: T47D

Compound	GI50 (786-0)	GI50 (ACHN)	GI50 (CCRF-CEM)	GI50 (EKVX)	GI50 (HCT-15)	GI50 (HT-29)	GI50 (IGROV-1)	GI50 (KM12)	GI50 (NCI-H23)	GI50 (NCI/ADR-RES)	GI50 (PC-3)	GI50 (RXF 393)	GI50 (SN12C)	GI50 (SNB-19)	GI50 (SNB-75)	GI50 (UO-31)	GI50 (HCC 2998)	GI50 (OVCAR-4)	GI50 (T47D)
CC(Cn1c2c(c3cc(O)ccc31)CCc1ccc(O)cc1-2)N(C)C (stereo not given)	15.5 µM (inactive)	15.8 µM (inactive)	53.3 µM (inactive)	19.8 µM (inactive)	13.9 µM	18.2 µM (inactive)	12.8 µM (inactive)	15.9 µM (inactive)	19.6 µM (inactive)	20.2 µM (inactive)	12.4 µM (inactive)	22.1 µM (inactive)	29.4 µM (inactive)	17.8 µM (inactive)	15.8 µM (inactive)	13.2 µM (inactive)	–	–	–
CN(N)C(=O)NCCCl	> 100 µM (inactive)	> 100 µM (inactive)	> 100 µM (inactive)	> 100 µM (inactive)	> 100 µM	> 100 µM (inactive)	> 100 µM (inactive)	> 100 µM (inactive)	> 100 µM (inactive)	0.021 µM (active)	> 100 µM (inactive)	> 100 µM (inactive)	> 100 µM (inactive)	> 100 µM (inactive)	> 100 µM (inactive)	> 100 µM (inactive)	> 100 µM (inactive)	> 100 µM (inactive)	–
O=C(c1ccccc1)c1cc(-c2ccccc2)c(-c2ccccc2)[nH]c(=O)c1=O	> 100 µM (inactive)	63.5 µM (inactive)	15.2 µM (inactive)	33.7 µM (inactive)	28.3 µM	36.6 µM (inactive)	60 µM (inactive)	35.8 µM (inactive)	19 µM (inactive)	33.7 µM (inactive)	36.6 µM (inactive)	–	35.2 µM (inactive)	64.6 µM (inactive)	–	35.8 µM (inactive)	26.9 µM (inactive)	33.7 µM (inactive)	–
N#CC(C#N)=c1c(=O)c2c3ccccc3cc3cccc1c32	35.2 µM (inactive)	37.1 µM (inactive)	> 100 µM (inactive)	–	> 100 µM	> 100 µM (inactive)	40.6 µM (inactive)	58.7 µM (inactive)	> 100 µM (inactive)	> 100 µM (inactive)	55.7 µM (inactive)	–	> 100 µM (inactive)	> 100 µM (inactive)	> 100 µM (inactive)	–	> 100 µM (inactive)	> 100 µM (inactive)	> 100 µM (inactive)
CCCCCCNc1n[nH]c(=O)c2c1nnn2Cc1ccccc1	> 100 µM (inactive)	> 100 µM (inactive)	> 100 µM (inactive)	> 100 µM (inactive)	> 100 µM	> 100 µM (inactive)	–	> 100 µM (inactive)	> 100 µM (inactive)	> 100 µM (inactive)	> 100 µM (inactive)	–	> 100 µM (inactive)	> 100 µM (inactive)	–	> 100 µM (inactive)	> 100 µM (inactive)	> 100 µM (inactive)	–
CN1CCN(C(=S)N(C(=O)c2ccco2)c2ccccc2)CC1	> 100 µM (inactive)	> 100 µM (inactive)	> 100 µM (inactive)	–	> 100 µM	> 100 µM (inactive)	> 100 µM (inactive)	> 100 µM (inactive)	> 100 µM (inactive)	–	–	> 100 µM (inactive)	> 100 µM (inactive)	> 100 µM (inactive)	> 100 µM (inactive)	> 100 µM (inactive)	> 100 µM (inactive)	> 100 µM (inactive)	> 100 µM (inactive)
C=Cc1c(C)c2cc3nc(c4c5[nH]c(cc6nc(cc1[nH]2)C(C)=C6CC)c(C)c5C(=O)C4C(=O)OC)C(CCC(=O)OC)C3C (stereo not given)	> 100 µM (inactive)	> 100 µM (inactive)	> 100 µM (inactive)	> 100 µM (inactive)	> 100 µM	> 100 µM (inactive)	> 100 µM (inactive)	> 100 µM (inactive)	> 100 µM (inactive)	–	> 100 µM (inactive)	> 100 µM (inactive)	> 100 µM (inactive)	> 100 µM (inactive)	> 100 µM (inactive)	> 100 µM (inactive)	59.7 µM (inactive)	> 100 µM (inactive)	> 100 µM (inactive)
CC[C@H]1CNC(=O)CC1CC(=O)OC (stereo not given in full)	> 100 µM (inactive)	> 100 µM (inactive)	–	> 100 µM (inactive)	> 100 µM	> 100 µM (inactive)	> 100 µM (inactive)	> 100 µM (inactive)	> 100 µM (inactive)	–	–	> 100 µM (inactive)	> 100 µM (inactive)	> 100 µM (inactive)	> 100 µM (inactive)	> 100 µM (inactive)	> 100 µM (inactive)	> 100 µM (inactive)	–
Cc1cc(=O)c2cc(/N=C/c3ccc([N+](=O)[O-])o3)ccc2o1	64.4 µM (inactive)	91.6 µM (inactive)	41.1 µM (inactive)	> 100 µM (inactive)	88.3 µM	> 100 µM (inactive)	> 100 µM (inactive)	> 100 µM (inactive)	> 100 µM (inactive)	> 100 µM (inactive)	–	–	> 100 µM (inactive)	> 100 µM (inactive)	> 100 µM (inactive)	> 100 µM (inactive)	> 100 µM (inactive)	> 100 µM (inactive)	> 100 µM (inactive)
CCOC(=O)c1cn2c(n1)sc1cc(OC)ccc12	6.21 µM (inactive)	8.75 µM (inactive)	–	> 53.3 µM (inactive)	3.89 µM	2.82 µM (inactive)	26.7 µM (inactive)	3.34 µM (inactive)	> 47.5 µM (inactive)	19.5 µM (inactive)	15.2 µM (inactive)	13.8 µM (inactive)	7.41 µM (inactive)	9.82 µM (inactive)	33.2 µM (inactive)	10.9 µM (inactive)	31 µM (inactive)	> 100 µM (inactive)	–
CC12CCC(CC1(Cl)Cl)C2 (stereo not given)	> 100 µM (inactive)	> 100 µM (inactive)	> 100 µM (inactive)	> 100 µM (inactive)	> 100 µM	> 100 µM (inactive)	> 100 µM (inactive)	> 100 µM (inactive)	> 100 µM (inactive)	> 100 µM (inactive)	> 100 µM (inactive)	–	> 100 µM (inactive)	> 100 µM (inactive)	> 100 µM (inactive)	> 100 µM (inactive)	–	> 100 µM (inactive)	> 100 µM (inactive)
CCCC(=O)Nc1cc([N+](=O)[O-])c([N+](=O)[O-])cc1OC	26.3 µM (inactive)	13.5 µM (inactive)	14.1 µM (inactive)	17.7 µM (inactive)	8.87 µM	13.3 µM (inactive)	20.9 µM (inactive)	12.4 µM (inactive)	18.2 µM (inactive)	39.5 µM (inactive)	27.2 µM (inactive)	–	15.6 µM (inactive)	17 µM (inactive)	16.7 µM (inactive)	1.75 µM (inactive)	–	15.4 µM (inactive)	3.8 µM (inactive)
CC(C)=CCN1CC(C)C(=O)Nc2cc(Cl)ccc21 (stereo not given)	19.2 µM (inactive)	25 µM (inactive)	29.4 µM (inactive)	26.2 µM (inactive)	29.9 µM	19.2 µM (inactive)	24.3 µM (inactive)	25.2 µM (inactive)	21.6 µM (inactive)	–	18.6 µM (inactive)	28.4 µM (inactive)	15.9 µM (inactive)	28.5 µM (inactive)	–	28.6 µM (inactive)	28.5 µM (inactive)	25.6 µM (inactive)	24.9 µM (inactive)
CCOC(=O)CCC(NC(=O)c1ccc(CNc2nc3ccccc3nc2C(=O)OCC)cc1)C(=O)OCC (stereo not given)	> 100 µM (inactive)	> 100 µM (inactive)	> 100 µM (inactive)	> 100 µM (inactive)	> 100 µM	> 100 µM (inactive)	43.7 µM (inactive)	> 100 µM (inactive)	> 100 µM (inactive)	> 100 µM (inactive)	> 100 µM (inactive)	–	> 100 µM (inactive)	23.7 µM (inactive)	> 100 µM (inactive)	44.1 µM (inactive)	–	–	–
O=c1[nH]c(Nc2nc3ccccc3[nH]2)nc(O)c1-c1ccccc1	> 100 µM (inactive)	> 100 µM (inactive)	> 100 µM (inactive)	–	> 100 µM	> 100 µM (inactive)	> 100 µM (inactive)	–	> 100 µM (inactive)	> 100 µM (inactive)	> 100 µM (inactive)	> 100 µM (inactive)	> 100 µM (inactive)	> 100 µM (inactive)	> 100 µM (inactive)	> 100 µM (inactive)	> 100 µM (inactive)	> 100 µM (inactive)	–
CC1(C)C2CCC1(C)C(NC(=O)CCN1CCOCC1)C2 (stereo not given)	> 100 µM (inactive)	> 100 µM (inactive)	> 100 µM (inactive)	> 100 µM (inactive)	–	> 100 µM (inactive)	> 100 µM (inactive)	> 100 µM (inactive)	> 100 µM (inactive)	–	> 100 µM (inactive)	> 100 µM (inactive)	> 100 µM (inactive)	> 100 µM (inactive)	> 100 µM (inactive)	> 100 µM (inactive)	> 100 µM (inactive)	> 100 µM (inactive)	> 100 µM (inactive)
O=C(NCCCN(CCCCN(CCCNC(=O)c1cc(S(=O)(=O)O)cc(O)c1O)C(=O)c1cc(S(=O)(=O)O)cc(O)c1O)C(=O)c1cc(S(=O)(=O)O)cc(O)c1O)c1cc(S(=O)(=O)O)cc(O)c1O	> 100 µM (inactive)	> 100 µM (inactive)	> 100 µM (inactive)	–	> 100 µM	> 100 µM (inactive)	> 100 µM (inactive)	> 100 µM (inactive)	> 100 µM (inactive)	> 100 µM (inactive)	> 100 µM (inactive)	–	> 100 µM (inactive)	> 100 µM (inactive)	> 100 µM (inactive)	> 100 µM (inactive)	> 100 µM (inactive)	> 100 µM (inactive)	> 100 µM (inactive)
